Like-named read-outs stand apart in the source and are kept apart here.

Consider 27 compounds from patent US9204653B2, “5-fluoro pyrimidine derivatives” (DOW AGROSCIENCES LLC, priority 2008, dated 2015).

The test system of the experiment is Mycosphaerella graminicola; Anamorph: Septoria tritici; Bayer Code SEPTTR. The experiment is described as follows: Leaf blotch of wheat, foliar fungicide treatment, one day protectant (1DP) or three day curative (3DC). It counts as in vivo, Septoria tritici on wheat plants (variety Yuma). The settings on record: Zymoseptoria tritici, rating of percent disease control.

Setting [1] is: 24 h, one day protectant, read-out: SETTTR 1DP 25 ppm.
Where [2] appears, read: 24 h, one day protectant, read-out: SEPTTR 1DP 100 ppm.
Where [3] appears, read: 72 h, three day curative, read-out: SEPTTR 3DC 25 ppm.
Setting [4] is: 72 h, three day curative, read-out: SEPTTR 3DC 100 ppm.

Regarding `O=[N+]([O-])c1ccccc1SNc1nc(OCc2ccc(F)cc2F)ncc1F` [Compound 662], the pest or weed control at 25 ppm by setting is: under setting [1], 0 to 25%; under setting [3], 26 to 50%. Also, the pest or weed control at 100 ppm is, setting by setting: under setting [2], 76 to 100%; under setting [4], 26 to 50%.
Regarding `COc1ccc(COc2ncc(F)c(/N=C/N(C)C)n2)cc1F` [Compound 663], the pest or weed control at 25 ppm was 76 to 100% under setting [1] and 76 to 100% under setting [3]. For the same compound, the pest or weed control at 100 ppm was 76 to 100% under setting [2] and 76 to 100% under setting [4].
For `CCc1ccccc1NNc1nc(OCc2ccc(F)cc2)ncc1F` [Compound 667], the pest or weed control at 25 ppm under setting [1] was 0 to 25% and the pest or weed control at 25 ppm under setting [3] was in the range of 0 to 25%. The pest or weed control at 100 ppm runs as follows: under setting [2], 76 to 100%; under setting [4], 76 to 100%.
For `COCCOC(=O)Nc1nc(OCc2cccc(C#N)c2)ncc1F` [Compound 668], the pest or weed control at 25 ppm under setting [1] was in the range of 26 to 50% and the pest or weed control at 25 ppm under setting [3] lay in the range of 76 to 100%. Also, the pest or weed control at 100 ppm is, setting by setting: under setting [2], 76 to 100%; under setting [4], 76 to 100%.
For `CN(C)/C=N/c1nc(OC(=O)Oc2ccccc2)ncc1F` [Compound 669], the pest or weed control at 25 ppm reads like this: under setting [1], 76 to 100%; under setting [3], 76 to 100%. Further, the pest or weed control at 100 ppm runs as follows: under setting [2], 76 to 100%; under setting [4], 76 to 100%.
Regarding `Cc1ccc(COc2ncc(F)c(NC(=S)NCc3ccccc3F)n2)cc1` [Compound 670], the pest or weed control at 25 ppm under setting [1] lay within 51 to 75% and the pest or weed control at 25 ppm under setting [3] was in the range of 51 to 75%. In addition, the pest or weed control at 100 ppm under setting [2] was in the range of 76 to 100% and the pest or weed control at 100 ppm under setting [4] fell in the range of 76 to 100%.
Consider `Cc1ccc(S(=O)(=O)Oc2ncc(F)c(N)n2)cc1` [Compound 671], for which the pest or weed control at 25 ppm was in the range of 76 to 100% under setting [1] and 76 to 100% under setting [3]. The pest or weed control at 100 ppm under setting [2] lay within 76 to 100% and the pest or weed control at 100 ppm under setting [4] was 76 to 100%.
For the compound `O=C(CCl)Nc1nc(OCc2ccc(F)cc2)ncc1F` [Compound 672], the pest or weed control at 25 ppm by setting is: under setting [1], 76 to 100%; under setting [3], 76 to 100%. In addition, the pest or weed control at 100 ppm lay within 76 to 100% under setting [2] and 76 to 100% under setting [4].
In the case of `CSc1ccc(COc2ncc(F)c(N)n2)cc1` [Compound 673], the pest or weed control at 25 ppm is 76 to 100% under setting [1] and 76 to 100% under setting [3]. The pest or weed control at 100 ppm reads like this: under setting [2], 76 to 100%; under setting [4], 76 to 100%.
Consider `CC[Si](CC)(CC)Nc1nc(OC(C)c2ccc(F)cc2)ncc1F` (stereo not drawn) [Compound 674], for which the pest or weed control at 25 ppm reads like this: under setting [1], 76 to 100%; under setting [3], 76 to 100%. Also, the pest or weed control at 100 ppm was in the range of 76 to 100% under setting [2] and 76 to 100% under setting [4].
Turning to `CCOCNc1nc(OCc2ccc(C)cc2)ncc1F` [Compound 675], the pest or weed control at 25 ppm by setting is: under setting [1], 76 to 100%; under setting [3], 76 to 100%. Moreover, the pest or weed control at 100 ppm was in the range of 76 to 100% under setting [2] and 76 to 100% under setting [4].
Take `COc1ccccc1COc1ncc(F)c(NC(=O)c2ccccc2)n1` [Compound 676]: the pest or weed control at 25 ppm lay in the range of 26 to 50% under setting [1] and 0 to 25% under setting [3]. The pest or weed control at 100 ppm under setting [2] lay in the range of 76 to 100% and the pest or weed control at 100 ppm under setting [4] lay in the range of 0 to 25%.
Turning to `OCNc1nc(OCc2ccccc2)ncc1F` [Compound 677], the pest or weed control at 25 ppm fell in the range of 76 to 100% under setting [1] and 76 to 100% under setting [3]. For the same compound, the pest or weed control at 100 ppm lay in the range of 76 to 100% under setting [2] and 76 to 100% under setting [4].
In the case of `CCCNC(=S)Nc1nc(OCc2ccccc2)ncc1F` [Compound 678], the pest or weed control at 25 ppm reads like this: under setting [1], 0 to 25%; under setting [3], 26 to 50%. For the same compound, the pest or weed control at 100 ppm runs as follows: under setting [2], 76 to 100%; under setting [4], 76 to 100%.
Take `Fc1cnc(OCc2ccccc2)nc1/N=C/N1CCc2ccccc2C1` [Compound 679]: the pest or weed control at 25 ppm is 76 to 100% under setting [1] and 76 to 100% under setting [3]. The pest or weed control at 100 ppm under setting [2] is 76 to 100% and the pest or weed control at 100 ppm under setting [4] is 76 to 100%.
For the compound `COc1ccc(OC)c(COc2ncc(F)c(NSc3ccccc3[N+](=O)[O-])n2)c1` [Compound 680], the pest or weed control at 25 ppm lay within 0 to 25% under setting [1] and 26 to 50% under setting [3]. Besides, the pest or weed control at 100 ppm lay in the range of 0 to 25% under setting [2] and 26 to 50% under setting [4].
Regarding `Cc1ccc(COc2ncc(F)c(-n3ccnc3)n2)cc1` [Compound 681], the pest or weed control at 25 ppm runs as follows: under setting [1], 76 to 100%; under setting [3], 76 to 100%. Moreover, the pest or weed control at 100 ppm runs as follows: under setting [2], 76 to 100%; under setting [4], 76 to 100%.
Consider `Nc1nc(OCc2cc(Cl)nc(Cl)c2)ncc1F` [Compound 682], for which the pest or weed control at 25 ppm was in the range of 76 to 100% under setting [1] and 76 to 100% under setting [3]. The pest or weed control at 100 ppm reads like this: under setting [2], 76 to 100%; under setting [4], 76 to 100%.
Take `Fc1cccc(COc2ncc(F)c(/N=C/N3CCOCC3)n2)c1` [Compound 684]: the pest or weed control at 25 ppm is, setting by setting: under setting [1], 76 to 100%; under setting [3], 76 to 100%. The pest or weed control at 100 ppm is, setting by setting: under setting [2], 76 to 100%; under setting [4], 76 to 100%.
As for `COc1cc(COc2ncc(F)c(NSc3ccccc3[N+](=O)[O-])n2)cc(OC)c1` [Compound 685], the pest or weed control at 25 ppm under setting [1] lay in the range of 0 to 25% and the pest or weed control at 25 ppm under setting [3] fell in the range of 0 to 25%. In addition, the pest or weed control at 100 ppm is, setting by setting: under setting [2], 76 to 100%; under setting [4], 0 to 25%.
With `Fc1ccc(COc2ncc(F)c(-n3ccnc3)n2)cc1` [Compound 688], the pest or weed control at 25 ppm runs as follows: under setting [1], 76 to 100%; under setting [3], 76 to 100%. Further, the pest or weed control at 100 ppm fell in the range of 76 to 100% under setting [2] and 76 to 100% under setting [4].
Turning to `Nc1nc(OCc2ccc(Cl)cc2)ncc1F` [Compound 689], the pest or weed control at 25 ppm is, setting by setting: under setting [1], 76 to 100%; under setting [3], 76 to 100%. The pest or weed control at 100 ppm under setting [2] fell in the range of 76 to 100% and the pest or weed control at 100 ppm under setting [4] was 76 to 100%.
Take `N#Cc1cccc(COc2ncc(F)c(NC(=O)OCc3ccccc3)n2)c1` [Compound 690]: the pest or weed control at 25 ppm under setting [1] is 51 to 75% and the pest or weed control at 25 ppm under setting [3] was in the range of 76 to 100%. For the same compound, the pest or weed control at 100 ppm fell in the range of 76 to 100% under setting [2] and 76 to 100% under setting [4].
As for `Cc1cc(C)c(COc2ncc(F)c(N)n2)cc1C` [Compound 691], the pest or weed control at 25 ppm under setting [1] lay in the range of 51 to 75% and the pest or weed control at 25 ppm under setting [3] lay within 51 to 75%. Further, the pest or weed control at 100 ppm by setting is: under setting [2], 76 to 100%; under setting [4], 76 to 100%.
For `COc1cccc(COc2ncc(F)c(/N=C/N(C)C)n2)c1` [Compound 692], the pest or weed control at 25 ppm runs as follows: under setting [1], 76 to 100%; under setting [3], 76 to 100%. The pest or weed control at 100 ppm reads like this: under setting [2], 76 to 100%; under setting [4], 76 to 100%.
With `Nc1nc(OCc2cc(F)c(F)c(F)c2F)ncc1F` [Compound 693], the pest or weed control at 25 ppm is, setting by setting: under setting [1], 76 to 100%; under setting [3], 76 to 100%. Besides, the pest or weed control at 100 ppm runs as follows: under setting [2], 76 to 100%; under setting [4], 76 to 100%.
With `CCCCCCOc1ncc(F)c(NC(C)=O)n1` [Compound 695], the pest or weed control at 25 ppm is, setting by setting: under setting [1], 0 to 25%; under setting [3], 0 to 25%. In addition, the pest or weed control at 100 ppm under setting [2] lay in the range of 76 to 100% and the pest or weed control at 100 ppm under setting [4] was 26 to 50%.
